In the assay the target is FGFR2 (Homo sapiens, UniProt P21802). The assay is described as follows: FGFR2 Kinase Protocol - Condition 2 (Reaction Biology HotSpot radiometric kinase assay, no preincubation). The following applies: poly[Glu:Tyr] (4:1) 0.2 mg/ml, ATP 100 microM, 2 hr room temperature. It is filed as biochemical. The protocol: Example 2: FGFR2 Kinase Protocol—Condition 2
The Reaction Biology HotSpot assay platform (http://www.reactionbiology.com) was used to measure kinase/inhibitor interactions as described previously (Anastassiadis et al., 2011). In brief, for each reaction, kinase and substrate were mixed in a buffer containing 20 mM HEPES (pH 7.5), 10 mM MgCl2, 1 mM EGTA, 0.02% Brij35, 0.02 mg/mL BSA, 0.1 mM Na3VO4, 2 mM DTT, and 1% DMSO. All compounds were in powder form and freshly solubilized in DMSO for assays. Compounds were then added to each reaction mixture via acoustic dispense using an ECHO 550 nanoliter dispenser. For Human FGFR2 wildtype testing, a peptide substrate, poly[Glu:Tyr] (4:1) was used to promote the reaction at a concentration of 0.2 mg/ml. For Human FGFR2 (V564F) testing, a peptide substrate, poly[Glu:Tyr] (4:1) was used to promote the reaction at a concentration of 0.2 mg/ml. ATP concentration for all assays was maintained at 100 micromolar. Compounds were tested in 10-dose IC50 mode with a 3-fold serial dilution. Compounds were added to plates and ATP was added directly to the wells. ATP (Sigma-Aldrich, St. Louis, MO 63178) and [g33P] ATP (specific activity 10 microCi/microliter) purchased at PerkinElmer (Boston, MA, 02118 Cat #BLU 003H250UC) were added at a final total concentration of 100 microM to each well with no preincubation. Reactions were carried out at room temperature for 2 hr and spotted onto P81 ion exchange cellulose chromatography paper (Reaction Biology). Filter paper was washed in 0.75% phosphoric acid to remove unincorporated ATP. The percent remaining kinase activity relative to a vehicle-containing (DMSO) kinase reaction was calculated for each kinase/inhibitor pair. IC50 values were calculated using Dotmatics Knowledge Solutions Studies curve fitting (Dotmatics, Bishops Stortford, UK, CM23).

In patent publication US20230374015A1, “INHIBITORS OF FIBROBLAST GROWTH FACTOR RECEPTOR KINASES” (Kinnate Biopharma Inc., priority 2020, published 2023) one finds IC50 data, which are given here for 21 molecules.

Chain of FGFR2 (P21802 22-821): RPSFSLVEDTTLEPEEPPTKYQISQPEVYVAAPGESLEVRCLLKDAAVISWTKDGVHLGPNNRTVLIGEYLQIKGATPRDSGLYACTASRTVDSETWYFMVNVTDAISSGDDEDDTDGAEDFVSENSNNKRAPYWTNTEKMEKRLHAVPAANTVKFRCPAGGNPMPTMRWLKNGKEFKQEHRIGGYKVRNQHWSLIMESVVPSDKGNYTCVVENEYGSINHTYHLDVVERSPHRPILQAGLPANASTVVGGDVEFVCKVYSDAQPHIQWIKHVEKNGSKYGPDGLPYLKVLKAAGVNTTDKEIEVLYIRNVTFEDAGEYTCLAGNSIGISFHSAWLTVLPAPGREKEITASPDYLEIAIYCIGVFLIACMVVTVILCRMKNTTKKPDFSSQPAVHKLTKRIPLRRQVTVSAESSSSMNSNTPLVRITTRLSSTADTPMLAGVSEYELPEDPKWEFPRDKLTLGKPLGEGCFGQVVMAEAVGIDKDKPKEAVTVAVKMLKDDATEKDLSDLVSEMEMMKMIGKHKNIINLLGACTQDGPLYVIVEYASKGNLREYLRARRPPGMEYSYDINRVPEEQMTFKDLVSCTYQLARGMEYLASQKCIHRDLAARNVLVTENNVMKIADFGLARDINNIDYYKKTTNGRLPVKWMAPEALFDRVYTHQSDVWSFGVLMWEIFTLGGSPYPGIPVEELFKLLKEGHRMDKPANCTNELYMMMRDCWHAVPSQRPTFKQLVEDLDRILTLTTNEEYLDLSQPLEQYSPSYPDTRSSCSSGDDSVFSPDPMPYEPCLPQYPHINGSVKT

With `C=CC(=O)N1C[C@@H](n2nc(C#Cc3cc4ncn(CC)c4cc3F)c3c(N)ncnc32)C[C@@H]1COC(F)(F)F` [Example 71, 1-[(2R,4S)-4-[4-amino-3-[2-(1-ethyl-6-fluoro-1,3-benzodiazol-5-yl)ethynyl]pyrazolo[3,4-d]pyrimidin-1-yl]-2-[(trifluoromethoxy)methyl]pyrrolidin-1-yl]prop-2-en-1-one], the IC50 (usually the point on the concentration scale where inhibition reaches its midpoint) is at most 100 nM. As for `C=CC(=O)N1C[C@@H](n2nc(C#Cc3c(F)cc4c(ncn4C4CC4)c3F)c3c(N)ncnc32)C[C@@H]1COC` [Example 72, 1-[(2R,4S)-4-[4-Amino-3-[2-(1-cyclopropyl-4,6-difluoro-1,3-benzodiazol-5-yl)ethynyl]pyrazolo[3,4-d]pyrimidin-1-yl]-2-(methoxymethyl)pyrrolidin-1-yl]prop-2-en-1-one], the figure is at most 100 nM; as for `C=CC(=O)N1C[C@@H](n2nc(C#Cc3c(F)cc4c(ncn4C4CC4)c3F)c3c(N)nccc32)C[C@@H]1COC` [Example 73, 1-[(2R,4S)-4-[4-Amino-3-[2-(1-cyclopropyl-4,6-difluoro-1,3-benzodiazol-5-yl)ethynyl]pyrazolo[4,3-c]pyridin-1-yl]-2-(methoxymethyl)pyrrolidin-1-yl]prop-2-en-1-one; formic acid], at most 100 nM; as for `C=CC(=O)N1C[C@@H](n2nc(C#Cc3cc4ncn(C)c4cc3F)c3c(N)nccc32)C[C@@H]1COC` [Example 74, 1-[(2R,4S)-4-[4-Amino-3-[2-(6-fluoro-1-methyl-1,3-benzodiazol-5-yl)ethynyl]pyrazolo[4,3-c]pyridin-1-yl]-2-(methoxymethyl)pyrrolidin-1-yl]prop-2-en-1-one], at most 100 nM. In turn, `C=CC(=O)N1C[C@@H](n2cc(C#Cc3c(F)cc4c(ncn4C4CC4)c3F)c3c(N)ncnc32)C[C@@H]1COC` [Example 75, 1-[(2R,4S)-4-[4-Amino-5-[2-(1-cyclopropyl-4,6-difluoro-1,3-benzodiazol-5-yl)ethynyl]pyrrolo[2,3-d]pyrimidin-7-yl]-2-(methoxymethyl)pyrrolidin-1-yl]prop-2-en-1-one] gave an IC50 of at most 100 nM. Turning to `C=CC(=O)N1C[C@@H](n2nc(C#Cc3c(F)cc4c(ncn4C4CC4)c3F)c3c(N)ncnc32)C[C@@H]1COC(F)(F)F` [Example 76, 1-[(2R,4S)-4-[4-Amino-3-[2-(1-cyclopropyl-4,6-difluoro-1,3-benzodiazol-5-yl)ethynyl]pyrazolo[3,4-d]pyrimidin-1-yl]-2-[(trifluoromethoxy)methyl]pyrrolidin-1-yl]prop-2-en-1-one], the half-maximal inhibitory concentration (IC50) is at most 100 nM. `C=CC(=O)N1C[C@@H](n2nc(C#Cc3cc4ncn(CC)c4cc3F)c3c(N)ncnc32)C[C@@H]1COC` [Example 77, 1-[(2R,4S)-4-[4-Amino-3-[2-(1-ethyl-6-fluoro-1,3-benzodiazol-5-yl)ethynyl]pyrazolo[3,4-d]pyrimidin-1-yl]-2-(methoxymethyl)pyrrolidin-1-yl]prop-2-en-1-one]: the IC50 is at most 100 nM. As for `C=CC(=O)N1C[C@@H](n2nc(C#Cc3cc4ncn(C5CC5)c4cc3F)c3c(N)ncnc32)C[C@@H]1COC(F)(F)F` [Example 78, 1-((2R,4S)-4-(4-Amino-3-((1-cyclopropyl-6-fluoro-1H-benzo[d]imidazol-5-yl)ethynyl)-1H-pyrazolo[3,4-d]pyrimidin-1-yl)-2-((trifluoromethoxy)methyl)pyrrolidin-1-yl)prop-2-en-1-one], the figure is at most 100 nM; as for `C=CC(=O)N1C[C@@H](n2nc(C#Cc3cc4ncn(CC)c4cc3F)c3c(N)nccc32)C[C@@H]1COC` [Example 79, 1-[(2R,4S)-4-[4-Amino-3-[2-(1-ethyl-6-fluoro-1,3-benzodiazol-5-yl)ethynyl]pyrazolo[4,3-c]pyridin-1-yl]-2-(methoxymethyl)pyrrolidin-1-yl]prop-2-en-1-one], at most 100 nM; as for `C=CC(=O)N1C[C@@H](n2cc(C#Cc3cc4ncn(CC)c4cc3F)c3c(N)ncnc32)C[C@@H]1COC` [Example 80, 1-[(2R,4S)-4-[4-Amino-5-[2-(1-ethyl-6-fluoro-1,3-benzodiazol-5-yl)ethynyl]pyrrolo[2,3-d]pyrimidin-7-yl]-2-(methoxymethyl)pyrrolidin-1-yl]prop-2-en-1-one], at most 100 nM. With `C=CC(=O)N1C[C@@H](n2nc(C#Cc3cc4ncn(CC)c4cc3F)c3c(N)nccc32)C[C@@H]1COC(F)(F)F` [Example 81, 1-[(2R,4S)-4-[4-Amino-3-[2-(1-ethyl-6-fluoro-1,3-benzodiazol-5-yl)ethynyl]pyrazolo[4,3-c]pyridin-1-yl]-2-[(trifluoromethoxy)methyl]pyrrolidin-1-yl]prop-2-en-1-one], the IC50 was at most 100 nM. As to `C=CC(=O)N1C[C@@H](n2nc(C#Cc3cc4ncn(C(F)F)c4cc3F)c3c(N)ncnc32)C[C@@H]1COC` [Example 82, 1-[(2R,4S)-4-(4-Amino-3-[2-[1-(difluoromethyl)-6-fluoro-1,3-benzodiazol-5-yl]ethynyl]pyrazolo[3,4-d]pyrimidin-1-yl)-2-(methoxymethyl)pyrrolidin-1-yl]prop-2-en-1-one], the concentration for half-maximal inhibition (IC50) is at most 100 nM. On to `C=CC(=O)N1C[C@@H](n2nc(C#Cc3cc4ncn(C(F)F)c4cc3F)c3c(N)nccc32)C[C@@H]1COC` [Example 83, 1-[(2R,4S)-4-(4-Amino-3-[2-[1-(difluoromethyl)-6-fluoro-1,3-benzodiazol-5-yl]ethynyl]pyrazolo[4,3-c]pyridin-1-yl)-2-(methoxymethyl)pyrrolidin-1-yl]prop-2-en-1-one], for which the IC50 is at most 100 nM.

Turning to `C=CC(=O)N1C[C@@H](n2cc(C#Cc3cc4ncn(C(F)F)c4cc3F)c3c(N)ncnc32)C[C@@H]1COC` [Example 84, 1-[(2R,4S)-4-(4-Amino-5-[2-[1-(difluoromethyl)-6-fluoro-1,3-benzodiazol-5-yl]ethynyl]pyrrolo[2,3-d]pyrimidin-7-yl)-2-(methoxymethyl)pyrrolidin-1-yl]prop-2-en-1-one], the 50% inhibitory concentration (IC50) is at most 100 nM. As for `C=CC(=O)N1C[C@@H](n2nc(C#Cc3c(F)cc4c(ncn4CC)c3F)c3c(N)ncnc32)C[C@@H]1COC` [Example 85, 1-[(2R,4S)-4-[4-Amino-3-[2-(1-ethyl-4,6-difluoro-1,3-benzodiazol-5-yl)ethynyl]pyrazolo[3,4-d]pyrimidin-1-yl]-2-(methoxymethyl)pyrrolidin-1-yl]prop-2-en-1-one], the figure is at most 100 nM; as for `C=CC(=O)N1C[C@@H](n2nc(C#Cc3c(F)cc4c(ncn4CC)c3F)c3c(N)nccc32)C[C@@H]1COC` [Example 86, 1-[(2R,4S)-4-[4-Amino-3-[2-(1-ethyl-4,6-difluoro-1,3-benzodiazol-5-yl)ethynyl]pyrazolo[4,3-c]pyridin-1-yl]-2-(methoxymethyl)pyrrolidin-1-yl]prop-2-en-1-one], at most 100 nM. On to `C=CC(=O)N1C[C@@H](n2cc(C#Cc3c(F)cc4c(ncn4CC)c3F)c3c(N)ncnc32)C[C@@H]1COC` [Example 87, 1-[(2R,4S)-4-[4-Amino-5-[2-(1-ethyl-4,6-difluoro-1,3-benzodiazol-5-yl)ethynyl]pyrrolo[2,3-d]pyrimidin-7-yl]-2-(methoxymethyl)pyrrolidin-1-yl]prop-2-en-1-one], for which the IC50 is at most 100 nM. In turn, `C=CC(=O)N1C[C@@H](n2nc(C#Cc3cc4ncn(CC)c4cc3Cl)c3c(N)nccc32)C[C@@H]1COC` [Example 88, 1-[(2R,4S)-4-[4-Amino-3-[2-(6-chloro-1-ethyl-1,3-benzodiazol-5-yl)ethynyl]pyrazolo[4,3-c]pyridin-1-yl]-2-(methoxymethyl)pyrrolidin-1-yl]prop-2-en-1-one] registered an IC50 of at most 100 nM. For `C=CC(=O)N1C[C@@H](n2cc(C#Cc3cc4nc(C)[nH]c4cc3Cl)c3c(N)ncnc32)C[C@@H]1COC` [Example 89, 1-[(2R,4S)-4-[4-Amino-5-[2-(6-chloro-2-methyl-1H-1,3-benzodiazol-5-yl)ethynyl]pyrrolo[2,3-d]pyrimidin-7-yl]-2-(methoxymethyl)pyrrolidin-1-yl]prop-2-en-1-one] the value was at most 100 nM; for `C=CC(=O)N1C[C@@H](n2nc(C#Cc3cc4ncn(C)c4cc3Cl)c3c(N)ncnc32)C[C@@H]1COC` [Example 90, 1-[(2R,4S)-4-[4-Amino-3-[2-(6-chloro-1-methyl-1,3-benzodiazol-5-yl)ethynyl]pyrazolo[3,4-d]pyrimidin-1-yl]-2-(methoxymethyl)pyrrolidin-1-yl]prop-2-en-1-one], at most 100 nM.

`C=CC(=O)N1C[C@@H](n2cc(C#Cc3cc4ncn(C)c4cc3Cl)c3c(N)ncnc32)C[C@@H]1COC` [Example 91, 1-[(2R,4S)-4-[4-Amino-5-[2-(6-chloro-1-methyl-1,3-benzodiazol-5-yl)ethynyl]pyrrolo[2,3-d]pyrimidin-7-yl]-2-(methoxymethyl)pyrrolidin-1-yl]prop-2-en-1-one] showed an IC50 of at most 100 nM.
